In data set [1] the test system is tonic hind limb extensor seizure (MEST). The experiment in a line: Maximal electroshock seizure threshold (MEST) model in the rat. It is filed as in vivo. Conditions: 10 mg/kg p.o., 240 min pre-treatment, FIG. 3 and FIG. 4. The method, then: In the MEST model, a low-intensity electrical current of high frequency and short duration is applied to induce tonic convulsions.
Animals were randomly assigned to vehicle, compound treatment or Lamotrigine dose groups. Animals were dosed at 5 mL/kg according to treatment groups (n=12 or 16/group), with either vehicle (0.5% MC) p.o. for Example 6, vehicle (10% HP-b-CD) for Example 8, test compound at 10 mg/kg p.o. 240 min pre-treatment time, or Lamotrigine p.o. 360 min pre-treatment time.
Rats were individually assessed for production of a tonic hind limb extensor seizure following a single corneally delivered electroshock of 0.3 second duration, using an ‘up and down method’ of shock titration (Kimball A W et al., 1957). Thus, the first rat within a treatment group was given a shock at the expected or estimated CC50 current (current producing tonic hind limb extensor seizures in 50% of animals). […] This procedure was continued for all rats within a treatment group. Induction of seizure was measured as an all-or-nothing effect scored as either present (+) or absent (0) for each animal. […]
Significant differences between drug-treated animals and controls were assessed according to Litchfield and Wilcoxon (1949) or One-Way ANOVA followed by Dunnett's multiple comparisons test.

Data set [2] in a line: In vitro human hepatocyte stability. It counts as in vitro ADME. Conditions: cryopreserved human hepatocytes (pooled donor), human hepatocytes 0.5×10^6 cells/mL, read-out: Scaled-up unbound CLint.
The next data set addresses T1, MAGL (Mus musculus, UniProt O35678).
T1 construct: brain proteomes were prepared and analyzed according to previously established methods; from tissue; host or cells: brain of wild-type C57Bl/6J mice
T1 sequence (O35678 1-303): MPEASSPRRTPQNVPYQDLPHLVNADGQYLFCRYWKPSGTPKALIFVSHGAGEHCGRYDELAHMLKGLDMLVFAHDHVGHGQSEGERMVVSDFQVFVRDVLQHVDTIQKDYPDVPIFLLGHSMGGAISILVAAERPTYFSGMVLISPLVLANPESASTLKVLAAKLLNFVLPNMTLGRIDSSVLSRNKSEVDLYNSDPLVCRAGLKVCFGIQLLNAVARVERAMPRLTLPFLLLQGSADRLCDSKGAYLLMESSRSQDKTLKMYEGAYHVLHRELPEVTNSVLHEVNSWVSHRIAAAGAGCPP
The experiment in a line: In vivo MAGL inhibition in mouse brain proteomes after oral gavage. Conditions: 5 mg/kg oral gavage, 4 h after administration, read-out: MAGL % inh. 5 mg/kg (mouse). The method, then:
Inhibitors were administered to wild-type C57B1/6J by oral gavage in a vehicle of polyethylene glycol. Each animal was sacrificed 4 h following administration and brain proteomes were prepared and analyzed according to previously established methods (See Niphakis, M. J., et al. (2011) ACS Chem. Neurosci. and Long, J. Z., et al. Nat. Chem. Biol. 5:37-44).

Data set [3] can be described thus: Thermodynamic solubility in PBS. It counts as physicochemical. As to conditions: aqueous buffer, thermodynamic from solid; PBS pH 7.4; 24 hours at RT. The method, then:
The thermodynamic solubility of test article was determined in PBS at pH 7.4 in duplicate. The test article (1.5 mg) in PBS was incubated for 24 hours at RT with shaking at 1100 rpm. Sample was then filtered using a vacuum manifold, diluted, and analyzed by LC-MS/MS. Chromatographic conditions: Phenomenex Synergi 4μ Hydro-PR 80A column (2.0×30 mm) coupled with pre-guard column; mobile phase=0.1% formic acid in acetonitrile and 0.1% formic acid in water; flowrate=0.65 mL/min; column temperature=40 degrees C.; injection volume: 10 μL.
Mobile phase: 0.1% formic acid in acetonitrile (A) and 0.1% formic acid in water (B)
Mass conditions: Turbo spray ion source; ESI ionization model; MRM scan type; Collison gas=6 L/min; Curtain gas=30 L/min; Nebulize gas=50 L/min; Auxiliary gas=50 L/min; Temperature=500 degrees C.; Ion spray voltage=+5500 v (positive MRM).
The filtered solution was analyzed and quantified against a standard of known concentration in DMSO using UPLC coupled with mass spectral peak identification and quantitation. Solubility values of the test articles were calculated using Microsoft Excel as follows (DF is the dilution factor): […]

Data set [4] is described as follows: In vitro rat blood to plasma ratio. As to conditions: 1 μM test compound. It counts as in vitro ADME. The procedure:
Brain disposition was evaluated in male Sprague-Dawley rats (n=3, standard body weight). Briefly, test compound was formulated as a simple suspension, in 0.5% HPMC in water, then administered by oral gavage (5 mg/kg, 5 mL/kg). Four hours post dosing, rats were sacrificed, and terminal blood and brain samples were taken. Blood was obtained via cardiac puncture (0.1 mL) and was added into 0.4 mL CH3CN for precipitation immediately. The samples were stored at −75+/−15° C. prior to analysis. Brain tissue samples were collected after animals were fully exsanguinated, and the tissues were washed with cold saline quickly. After sectioning, brain sections were immediately frozen in liquid nitrogen and stored at −75+/−15° C. prior to analysis. Blood and brain samples were analyzed by LC/MS/MS using an optimized analytical method. Concentrations of test compound in blood and brain were quantified against matrix matched calibration standards. The total blood, plasma, and brain concentration data are presented in Table 2 alongside the calculated brain Kp (total brain concentration:total plasma concentration ratio), the calculated brain kp,uu (unbound brain concentration:unbound plasma concentration ratio), the free fractions in rat plasma and brain, and the in vitro rat blood to plasma distribution profile. The total plasma concentration data were calculated from the total blood concentration data using rat blood to plasma ratio which was measured in vitro (1 μM test compound). For kp,uu determination, the free fraction in rat plasma and brain homogenate were measured in vitro by standard equilibrium dialysis (1 μM test compound and 6 h equilibration against buffer pH 7.4; for rat plasma analysis, 100 mM stock solution of diisopropyl fluorophosphate was added to the pre-warmed rat plasma prior to adding test article).

As to `O=C(Nc1cccnn1)[C@H]1CC12CCN(C(=O)OC(C(F)(F)F)C(F)(F)F)CC2` [Example 6, 1,1,1,3,3,3-hexafluoropropan-2-yl (S)-1-(pyridazin-3-ylcarbamoyl)-6-azaspiro[2.5]octane-6-carboxylate], in data set [1], the “anticonvulsant activity in the MEST (seizure threshold CC50)” value is reported as “anticonvulsant activity”. Moreover, the CLint scaled at 1 μM in data set [2] is 5.79 mL/min/kg. Moreover, on MAGL, the inhibition at 5 mg/kg was 100%. The thermodynamic solubility at 24 h in data set [3] came out at 71.5 µg/mL. In addition, the blood plasma ratio at 1 μM in data set [4] is 0.72.

Regarding `O=C(NC1CCOCC1)[C@H]1CC12CCN(C(=O)OC(C(F)(F)F)C(F)(F)F)CC2` [Example 8, 1,1,1,3,3,3-hexafluoropropan-2-yl (S)-1-[(oxan-4-yl)carbamoyl]-6-azaspiro[2.5]octane-6-carboxylate], the “anticonvulsant activity in the MEST (seizure threshold CC50)” value in data set [1] was “anticonvulsant activity”. Besides, the CLint scaled at 1 μM in data set [2] turned out to be 7.75 mL/min/kg. In addition, the inhibition at 5 mg/kg at MAGL is 100%. The solubility (thermodynamic) at 24 h in data set [3] was 606 µg/mL. Moreover, the blood plasma ratio at 1 μM in data set [4] was 0.96.
